Assay results published in patent US20130303518A1, “Methods of Inhibiting the Catalytic Activity of a Protein Kinase and of Treating a Protein Kinase Related Disorder” (JIANGSU HANSOH PHARMACEUTICAL CO., LTD., priority 2007, published 2013).
Entries after “also recorded” stand apart in the source; their conditions may differ. Marks after values point to notes of the source that are not given here.

How the values were obtained:
[1] = biological target: T1, recombinant human VEGF-R2 (Homo sapiens, UniProt P35968); test: VEGFR-2 kinase assay (ELISA, time-resolved fluorescence); format: biochemical; settings: recombinant human VEGF-R2, 10 μM ATP, 25° C., 30 minutes; read-out: IC50 (VEGFR-2/bio)
T1 construct: purchased Cell signaling technology #7787
Experimental: This assay is used to measure the in vitro kinase activity of recombinant human VEGF-R2 in an ELISA assay.
• a. […] Stop Buffer: 50 mM EDTA, pH 8.0. • d.
The following protocol was used: • 1. The test compound was diluted with DMSO to the desired final assay concentration. […] 6 μM substrate peptide (Tyr87) was diluted with dH2O (1:1), 15 μl was added to every assay. • 3. VEGFR-2 enzyme was immediately transferred from −80° C. to ice, and the enzyme was allowed to thaw on ice. • 4. 2.2 μg VEGFR-2 enzyme was taken to the enzyme tube. • 5. […] 0.75 ml of DTT/Kinase buffer was transferred to each enzyme tube to prepare 4× reaction cocktail, and 7.5 μl 4× reaction cocktail was added to every assay. • 7. […] The reaction tube was incubated at 25° C. for 30 minutes. • 9. 30 μl/assay stop buffer (50 mM EDTA, pH 8.0) was added to stop the reaction. • 10. 25 μl of each reaction and 75 μl dH2O/well was transferred to a 96-well streptavidin coated plate, with shaking at room temperature for 60 minutes. • 11. Each well was washed three times with 200 μl PBS-T buffer. Plate was patted on paper towel to remove excess liquid. • 12. […] The reaction tube was incubated, with shaking at room temperature for 60 minutes. • 14. Washing was carried out as described above in step 11. • 15. Europium labeled anti-mouse IgG was diluted 1:500 in PBS-T buffer with 1% BSA, 100 μl diluted antibody was added to each well. • 16. The reaction tube was incubated, with shaking at room temperature for 30 minutes. • 17. Each well was washed five times with 200 μl PBS-T buffer. Plate was patted on paper towel to remove excess liquid. • 18. 100 μl/well DELFIA® Enhancement Solution was added. • 19. The reaction tube was incubated, with shaking at room temperature for 5 minutes. • 20.
The IC50 value can be derived from the IRs of compounds at different concentration gradients.

HUVEC cell = test: Inhibition of cell proliferation assay (SRB) on VEGFR high expressing HUVEC cells; settings: Homo sapiens, 72 h, read-out: IC50 (VEGFR/HUVEC)
Experimental: The following in vitro assay may be used to determine the level of activity and effect of different compounds of the present invention on the proliferation inhibition (cell toxic) of endothelium growth factor receptor (VEGFR) high expressing Homo sapiens cancer cell-HUVEC cell.
Then the cells are put back to the incubator and cultured for continuous 72 hours. 72 hours later, the cell exposed to compounds and control cell are assayed for their proliferation using Sulforhodamine B (SRB) method.
HUVEC cells were grown in growth media (DMEM/F12, supplemented with 10% FBS) in 100 mm corning culture plates till confluence at 37° C., 5% CO2. • 2. HUVEC cells were washed in 100 mm plates with FBS, then the cells were harvested by trypsinization and seeded to corning 96-well cell culture plates at concentration of 50000 cells/ml, leaving 6 wells/each plate empty as background. • 3. […] The compounds stock solution was prepared, using DMSO to solve candidate compounds to a concentration of 20 mM. Then DMSO was used to dilute the stock solution to a serious concentration of tested compounds solution (namely, 2 mM, 1 mM, 0.2 mM, 20 μM, 2 μM, 0.2 μM). • 5. […] Each DMSO serial concentration compound solution was diluted by 20 times with culture medium by adding 5 μl DMSO compound solution to 95 μl culture medium, then mixed well by vortex. This promised that the DMSO concentration at that the HUVEC cell will exposed to will not surpass 0.5%. • 6. […] Each well was added 180 μl medium, then 20 μl medium solution of tested compounds prepared at step 5 was added to each well. For negative control group cell, 20 μl culture medium containing 0.5% pure DMSO was added. So, HUVEC cells were exposed to each tested compound at a serial final concentration of 100 μM, 10 μM, 5 μM, 1 μM, 0.1 μM, 0.01 μM, and 0.001 μM. • 7. The culture plates were put back to incubator, and cultured for 72 hours at 37° C., 5% CO2. • 8. 72 hours later, cultures were removed from incubator into sterile work area. • 9. The fixative (50% Trichloroacetic Acid-TCA) was prepared by adding reagent grade water to the TCA, fixing the cells by gently layering 50 μl of cold TCA solution on top of the growth medium. • 10. The plates was incubated for 1 hour at 4° C. and then rinsed with water several times to remove TCA, serum proteins, etc. Plates were air dried and stored until use. Bland background optical density was measured in wells incubated with growth medium without cells. • 11. 0.4% Sulforhodamine B solution was prepared by using 10% acetic acid solution. 50 μl sulforhodamine B solution was added to each well of 96-well plates. • 12. The cells were allowed to stain for 30 minutes. • 13. The wash solution of 10% acetic acid was prepared. At the end of the staining period, the stain was removed and the cells were rinsed quickly with 1% acetic acid. Repeat until unincorporated dye was removed. Wash times were kept to a minimum to reduce desorption of protein-bound dye. After being rinsed, the cultures were air dried. • 14. […] Then cultures were allowed to stand for 5 minutes at room temperature, and the mixing of the dye was enhanced by gentle stirring in a gyratory shaker. • 15. The absorbance was measured by spectrophotometry at a wavelength of 565 nm. The background absorbance of 96-well plates at 690 nm was measured and subtracted from the measurement at 565 nm. • 16. The inhibition rate (IR) was calculated as follows:

HT-29 human colon cancer = test: Therapeutic effects against xenografts of HT-29 human colon cancer in nude mice; format: in vivo
Experimental: The therapeutic effects of Example 63 against xenografts of HT-29 human colon cancer in nude mice were estimated.
The therapeutic effects of the compound of Example 63 against xenografts of HT-29 human colon cancer in nude mice were estimated.
Preparation method: the compound of Example 63 was prepared to corresponding concentration with distilled water.
Six to seven-week-old BALB/cA-nude female mice was purchased from Slaccas Experimental Animal. Certificate No.: SCXK(Shanghai) 2003˜0003. Raising Conditions: SPF level.
Nude mice were hypodermic inoculated HT-29 human colon cancer cell. After tumors grew to 100-300 mm^3, mice were randomly divided into teams (d0). The volume of tumors and weigh of the mice were measured for 2-3 times per week. The calculation formula of the volume of tumor (V) is: V=½×a×b^2, a: length of tumor, b: width of tumor.

T1 sequence (P35968 20-1356): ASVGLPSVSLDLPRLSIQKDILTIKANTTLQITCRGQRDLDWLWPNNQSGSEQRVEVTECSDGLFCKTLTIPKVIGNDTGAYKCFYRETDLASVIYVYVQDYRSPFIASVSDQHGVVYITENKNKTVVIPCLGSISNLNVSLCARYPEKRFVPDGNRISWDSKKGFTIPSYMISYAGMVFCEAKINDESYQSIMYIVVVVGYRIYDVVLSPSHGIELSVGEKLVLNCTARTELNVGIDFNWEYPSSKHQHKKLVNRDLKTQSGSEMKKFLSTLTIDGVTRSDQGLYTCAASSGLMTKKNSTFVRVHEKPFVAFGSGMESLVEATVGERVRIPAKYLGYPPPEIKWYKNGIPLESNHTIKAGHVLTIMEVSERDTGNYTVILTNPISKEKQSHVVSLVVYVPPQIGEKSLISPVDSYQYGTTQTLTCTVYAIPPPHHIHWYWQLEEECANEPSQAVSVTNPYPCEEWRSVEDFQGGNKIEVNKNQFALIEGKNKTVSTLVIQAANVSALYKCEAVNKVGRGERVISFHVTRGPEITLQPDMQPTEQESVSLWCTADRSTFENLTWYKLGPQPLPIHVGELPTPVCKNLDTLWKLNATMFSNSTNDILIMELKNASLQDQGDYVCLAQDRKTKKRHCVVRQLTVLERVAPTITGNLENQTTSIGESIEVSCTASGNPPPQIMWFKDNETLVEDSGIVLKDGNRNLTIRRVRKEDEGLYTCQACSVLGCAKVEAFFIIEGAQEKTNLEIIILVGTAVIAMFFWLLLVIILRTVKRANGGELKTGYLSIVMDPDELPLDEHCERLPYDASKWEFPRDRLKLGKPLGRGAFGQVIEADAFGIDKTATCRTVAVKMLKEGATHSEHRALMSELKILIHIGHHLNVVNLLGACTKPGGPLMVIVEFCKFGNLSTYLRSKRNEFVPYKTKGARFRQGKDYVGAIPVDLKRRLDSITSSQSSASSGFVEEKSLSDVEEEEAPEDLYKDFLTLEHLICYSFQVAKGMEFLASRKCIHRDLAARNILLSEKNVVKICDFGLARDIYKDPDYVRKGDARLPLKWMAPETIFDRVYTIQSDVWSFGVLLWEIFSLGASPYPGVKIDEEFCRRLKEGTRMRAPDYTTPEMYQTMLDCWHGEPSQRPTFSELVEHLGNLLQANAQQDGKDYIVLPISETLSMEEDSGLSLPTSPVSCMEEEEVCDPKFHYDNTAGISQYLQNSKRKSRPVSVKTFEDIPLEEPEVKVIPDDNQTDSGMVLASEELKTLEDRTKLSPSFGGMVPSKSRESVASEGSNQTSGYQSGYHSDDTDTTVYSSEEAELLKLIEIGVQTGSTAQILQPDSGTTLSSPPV

Structure (SMILES)	IC50 [1] [nM]	IC50 (HUVEC cell) [nM]	other results
CCN(CC)CCN1CCCc2[nH]c(/C=C3\C(=O)Nc4ccc(Cl)cc43)c(C)c2C1=O [Example 2]	21	288	
CCN(CC)CCN1CCCc2[nH]c(/C=C3\C(=O)Nc4cc(NCc5ccc(F)cc5)c(F)cc43)c(C)c2C1=O [Example 3, (Z)-5-(2-Diethylamino-ethyl)-2-[5-fluoro-6-(4-fluoro-benzylamino)-2-oxo-1,2-dihydro-indol-3-ylidenemethyl]-3-methyl-5,6,7,8-tetrahydro-1H-pyrrolo[3,2-c]azepin-4-one]	280	100	
CCN(CC)CCN1CCCc2[nH]c(/C=C3\C(=O)Nc4c(Br)cc(F)cc43)c(C)c2C1=O [Example 4, (Z)-2-(7-Bromo-5-fluoro-2-oxo-1,2-dihydro-indol-3-ylidenemethyl)-5-(2-diethylamino-ethyl)-3-methyl-5,6,7,8-tetrahydro-1H-pyrrolo[3,2-c]azepin-4-one]	41	404	
CCN(CC)CCN1CCCc2[nH]c(/C=C3\C(=O)Nc4cccc(-c5cccc(F)c5F)c43)c(C)c2C1=O [Example 6, (Z)-5-(2-Diethylamino-ethyl)-2-[4-(2,3-difluoro-phenyl)-2-oxo-1,2-dihydro-indol-3-ylidenemethyl]-3-methyl-5,6,7,8-tetrahydro-1H-pyrrolo[3,2-c]azepin-4-one]	23	280	
CCN(CC)CCN1CCCc2[nH]c(/C=C3\C(=O)Nc4cc(NC(=O)COC)c(F)cc43)c(C)c2C1=O [Example 7, (Z)—N-{3-[5-(2-Diethylamino-ethyl)-3-methyl-4-oxo-1,4,5,6,7,8-hexahydro-pyrrolo[3,2-c]azepin-2-ylmethylene]-5-fluoro-2-oxo-2,3-dihydro-1H-indol-6-yl}-2-methoxy-acetamide]	690		
CCN(CC)CCN1CCCc2[nH]c(/C=C3\C(=O)Nc4cc(NC(=O)[C@H](C)O)c(F)cc43)c(C)c2C1=O [Example 8, (S,Z)—N-{3-[5-(2-Diethylamino-ethyl)-3-methyl-4-oxo-1,4,5,6,7,8-hexahydro-pyrrolo[3,2-c]azepin-2-ylmethylene]-5-fluoro-2-oxo-2,3-dihydro-1H-indol-6-yl}-2-hydroxy-propionamide]	115	308	
CCN(CC)CCN1CCCc2[nH]c(/C=C3\C(=O)Nc4cc(NC(=O)C(C)(C)O)c(F)cc43)c(C)c2C1=O [Example 9, (Z)—N-{3-[5-(2-Diethylamino-ethyl)-3-methyl-4-oxo-1,4,5,6,7,8-hexahydro-pyrrolo[3,2-c]azepin-2-ylmethylene]-5-fluoro-2-oxo-2,3-dihydro-1H-indol-6-yl}-2-hydroxy-2-methyl-propionamide]	490	68	
Cc1c(/C=C2\C(=O)Nc3ccc(Cl)cc32)[nH]c2c1C(=O)N(CCN1CCOCC1)CCC2 [Example 10]	14	123	
Cc1c(/C=C2\C(=O)Nc3c(NC=O)cc(F)cc32)[nH]c2c1C(=O)N(CCN1CCOCC1)CCC2 [Example 20, (Z)—N-{5-Fluoro-3-[3-methyl-5-(2-morpholin-4-yl-ethyl)-4-oxo-1,4,5,6,7,8-hexahydro-pyrrolo[3,2-c]azepin-2-ylmethylene]-2-oxo-2,3-dihydro-1H-indol-7-yl}-formamide]	72		
Cc1c(/C=C2\C(=O)Nc3cc(NC(=O)[C@H](C)O)c(F)cc32)[nH]c2c1C(=O)N(CCN1CCOCC1)CCC2 [Example 21, (S,Z)—N-{5-Fluoro-3-[3-methyl-5-(2-morpholin-4-yl-ethyl)-4-oxo-1,4,5,6,7,8-hexahydro-pyrrolo[3,2-c]azepin-2-ylmethylene]-2-oxo-2,3-dihydro-1H-indol-6-yl}-2-hydroxy-propionamide]	160		
CCN(CC)CCN1CCCc2[nH]c(/C=C3\C(=O)Nc4ccc(F)cc43)c(C)c2C1=O [Example 63, malate]			T/C (%) (HT-29 human colon cancer; 40 mg/kg p.o d0~12, P < 0.01 vs control): 31.5* %; RTV (relative tumor volume) (HT-29 human colon cancer; X ± SD, 40 mg/kg p.o d0~12, dn vs d0): 0.80 ± 0.42; TV (volume of tumor) dn (HT-29 human colon cancer; X ± SD, 40 mg/kg p.o d0~12, dn: the 13th day after the first dosage): 300 ± 154 mm^3; tolerance of mice to the compound (in words) (HT-29 human colon cancer; continuous oral dosing, nude mice, malate): well tolerant; also recorded: well tolerant to the compound without obvious toxicity

More lines, main results first:

IC50 [1] [nM]	Structure (SMILES)	IC50 (HUVEC cell) [nM]	other results
8.5	CCN(CC)CCN1CCCc2[nH]c(/C=C3\C(=O)Nc4ccc(Br)cc43)c(C)c2C1=O [Example 5]	100	
1	Cc1c(/C=C2\C(=O)Nc3cccc(-c4cccc(F)c4F)c32)[nH]c2c1C(=O)N(CCN1CCOCC1)CCC2 [Example 12, (Z)-2-[4-(2,3-Difluoro-phenyl)-2-oxo-1,2-dihydro-indol-3-ylidenemethyl]-3-methyl-5-(2-morpholin-4-yl-ethyl)-5,6,7,8-tetrahydro-1H-pyrrolo[3,2-c]azepin-4-one]	300	
3	CCN(CC)CCN1CCCc2[nH]c(/C=C3\C(=O)Nc4cccc(Br)c43)c(C)c2C1=O [Example 13, (Z)-2-(4-Bromo-2-oxo-1,2-dihydro-indol-3-ylidenemethyl)-5-(2-diethylamino-ethyl)-3-methyl-5,6,7,8-tetrahydro-1H-pyrrolo[3,2-c]azepin-4-one]	804	
4	CCN(CC)CCN1CCCc2[nH]c(/C=C3\C(=O)Nc4ncc(Br)cc43)c(C)c2C1=O [Example 14]	457	
2	CCN(CC)CCN1CCCc2[nH]c(/C=C3\C(=O)Nc4cc(OC)ccc43)c(C)c2C1=O [Example 15, (Z)-5-(2-Diethylamino-ethyl)-2-(6-methoxy-2-oxo-1,2-dihydro-indol-3-ylidenemethyl)-3-methyl-5,6,7,8-tetrahydro-1H-pyrrolo[3,2-c]azepin-4-one]	1200	
1.3	CCN(CC)CCN1CCCc2[nH]c(/C=C3\C(=O)Nc4cccc(C)c43)c(C)c2C1=O [Example 16, (Z)-5-(2-Diethylamino-ethyl)-3-methyl-2-(4-methyl-2-oxo-1,2-dihydro-indol-3-ylidenemethyl)-5,6,7,8-tetrahydro-1H-pyrrolo[3,2-c]azepin-4-one]	210	
1	CCN(CC)CCN1CCCc2[nH]c(/C=C3\C(=O)Nc4cccc(CCO)c43)c(C)c2C1=O [Example 17, (Z)-5-(2-Diethylamino-ethyl)-2-[4-(2-hydroxy-ethyl)-2-oxo-1,2-dihydro-indol-3-ylidenemethyl]-3-methyl-5,6,7,8-tetrahydro-1H-pyrrolo[3,2-c]azepin-4-one]	129	
10	COCC(=O)Nc1cc2c(cc1F)/C(=C/c1[nH]c3c(c1C)C(=O)N(CCN1CCOCC1)CCC3)C(=O)N2 [Example 18, (Z)—N-{5-Fluoro-3-[3-methyl-5-(2-morpholin-4-yl-ethyl)-4-oxo-1,4,5,6,7,8-hexahydro-pyrrolo[3,2-c]azepin-2-ylmethylene]-2-oxo-2,3-dihydro-1H-indol-6-yl}-2-methoxy-acetamide]		
12	Cc1c(/C=C2\C(=O)Nc3cc(NCc4ccc(F)cc4)c(F)cc32)[nH]c2c1C(=O)N(CCN1CCOCC1)CCC2 [Example 19, (Z)-2-[5-Fluoro-6-(4-fluoro-benzylamino)-2-oxo-1,2-dihydro-indol-3-ylidenemethyl]-3-methyl-5-(2-morpholin-4-yl-ethyl)-5,6,7,8-tetrahydro-1H-pyrrolo[3,2-c]azepin-4-one]	146	
